The species entered for the first test is Mus musculus. As to the kind of experiment: Logarithm of effective dose evaluated using the foot-shock test in mice. It is filed as functional.
Conditions: not given
Consider `CN1C(=O)CN=C(c2ccccc2)c2cc(C#N)ccc21`, for which the “Log ED50” value was 1.74 mM kg-1.

For `CN(C)c1ccc2c(c1)C(c1ccccc1)=NCC(=O)N2C`, the “Log ED50” value is recorded as 0.86 mM kg-1. Still for that read-out and setting: the value for `CSc1ccc2c(c1)C(c1ccccc1)=NCC(=O)N2C` was 0.87 mM kg-1; that for `CN1C(=O)CN=C(c2ccccc2Cl)c2cc([N+](=O)[O-])ccc21` [RO-054082] was 2.12 mM kg-1. Take `O=C1CN=C(c2ccccc2)c2cc([N+](=O)[O-])ccc2N1` [NITRAZEPAM]: the “Log ED50” value turned out to be 1.75 mM kg-1. On the same count and under the same terms, to `N#Cc1ccc2c(c1)C(c1ccccc1)=NCC(=O)N2` belongs 0.81 mM kg-1; to `CN1C(=O)CN=C(c2ccccc2F)c2cc(Cl)ccc21` [FLUDIAZEPAM], 1.78 mM kg-1; to `CN1C(=O)CN=C(c2ccccc2)c2cc([N+](=O)[O-])ccc21` [NIMETAZEPAM], 2.07 mM kg-1. Consider `CSc1ccc2c(c1)C(c1ccccc1)=NCC(=O)N2`, for which the “Log ED50” value came to 1.15 mM kg-1. For the compound `O=C1CN=C(c2ccccc2)c2cc(C(F)(F)F)ccc2N1` [RO-052904], the “Log ED50” value is 1.48 mM kg-1.

Consider `CN1C(=O)CN=C(c2ccccc2F)c2cc([N+](=O)[O-])ccc21` [FLUNITRAZEPAM], for which the “Log ED50” value was 2.59 mM kg-1.

As to `O=C1CN=C(c2ccccc2)c2ccccc2N1` [RO-052921], the “Log ED50” value is given as 0.37 mM kg-1. On the same count and under the same terms, to `CN1C(=O)CN=C(c2ccccc2Cl)c2cc(Cl)ccc21` belongs 1.5 mM kg-1; to `CN1C(=O)CN=C(c2ccccc2)c2cc(Cl)ccc21` [DIAZEPAM], 1.45 mM kg-1; to `O=C1CN=C(c2ccccc2)c2cc(F)ccc2N1` [RO-053061], 0.4 mM kg-1. As to `CN1C(=O)CN=C(c2ccccc2F)c2ccccc21` [RO-054520], the “Log ED50” value was found to be 0.83 mM kg-1. Same read-out and setting: to `CN1C(=O)CN=C(c2ccccc2C(F)(F)F)c2cc([N+](=O)[O-])ccc21` belongs 1.86 mM kg-1; to `CN(C)c1ccc2c(c1)C(c1ccccc1Cl)=NCC(=O)N2C`, 0.61 mM kg-1.

The test system of another test is Escherichia coli. As to the kind of experiment: Logarithm of the inhibitory rate constant against Escherichia coli. The format is functional.
Conditions: not given
In the case of `CN(C)[C@@H]1C(=O)C(C(N)=O)=C(O)[C@@]2(O)C(=O)C3=C(O)c4c(ccc(N)c4O)CC3C[C@@H]12` (some centres undefined), the Log rate constant is on record as 2.16 M-1 s-1. The same measure, in the same setting: to `CN(C)[C@@H]1C(=O)C(C(N)=O)=C(O)[C@@]2(O)C(=O)C3=C(O)c4c(O)ccc(Cl)c4C(O)C3C[C@@H]12` (some centres undefined) belongs 2.71 M-1 s-1; to `CN(C)[C@@H]1C(=O)C(C(N)=O)=C(O)[C@@]2(O)C(O)=C3C(=O)c4c(O)cccc4[C@](C)(O)C3C(=O)[C@@H]12` (some centres undefined), 2.41 M-1 s-1; to `CN(C)[C@@H]1C(=O)C(C(N)=O)=C(O)[C@@]2(O)C(O)=C3C(=O)c4c(O)cccc4[C@](C)(O)C3C[C@@H]12` (some centres undefined), 2.43 M-1 s-1.

Regarding `CN(C)[C@@H]1C(=O)C(C(N)=O)=C(O)[C@@]2(O)C(=O)C3=C(O)c4c(O)ccc([N+](=O)[O-])c4CC3C[C@@H]12` (some centres undefined), the Log rate constant is 2.87 M-1 s-1. For the compound `CN(C)[C@@H]1C(=O)C(C(N)=O)=C(O)C2C(O)C3=C(C[C@H]21)[C@@](C)(O)c1c(Cl)ccc(O)c1C3=O` (some centres undefined), the Log rate constant is recorded as -0.47 M-1 s-1. Still for that read-out and setting: the value for `CN(C)[C@@H]1C(=O)C(C(N)=O)=C(O)C2C(=O)C3=C(O)c4c(O)cccc4CC3C[C@H]21` (some centres undefined) was 0.41 M-1 s-1; that for `CN(C)[C@@H]1C(=O)C(C(N)=O)=C(O)[C@@]2(O)C(=O)C3=C(O)c4c(O)ccc(N)c4CC3C[C@@H]12` (some centres undefined) was 2.26 M-1 s-1.

Regarding `CN(C)c1ccc2c(c1O)C(O)=C1C(=O)[C@]3(O)C(O)=C(C(N)=O)C(=O)[C@@H](N(C)C)[C@@H]3CC1C2` (some centres undefined), the Log rate constant was 1.37 M-1 s-1. On to `CN(C)[C@@H]1C(=O)C(C(N)=O)=C(O)[C@@]2(O)C(=O)C3=C(O)c4c(O)ccc(Br)c4CC3C[C@@H]12` (some centres undefined), for which the Log rate constant is on record as 1.71 M-1 s-1. The same measure, in the same setting: to `CN(C)[C@@H]1C(O)=C(C(N)=O)C(=O)[C@@]2(O)C(O)=C3C(=O)c4c(O)cccc4C[C@H]3C[C@@H]12` [SANCYCLINE] belongs 1.98 M-1 s-1. Same read-out and setting: the value for `Cc1c2c(c(O)c3c(O)cccc13)C(=O)C1C(O)=C(C(N)=O)C(=O)[C@@H](N(C)C)[C@@H]1C2` (some centres undefined) was 1.19 M-1 s-1; that for `CN(C)[C@@H]1C(=O)C(C(N)=O)=C(O)[C@@]2(O)C(O)=C3C(=O)c4c(O)ccc(Cl)c4[C@](C)(O)C3C[C@@H]12` (some centres undefined) was 2.6 M-1 s-1.

For `CN(C)[C@@H]1C(=O)C(C(N)=O)=C(O)[C@@]2(O)C(=O)C3=C(O)c4c(ccc([N+](=O)[O-])c4O)CC3C[C@@H]12` (some centres undefined), the Log rate constant was 1.65 M-1 s-1.

Another test has as its target T1, Phenylethanolamine N-methyltransferase (Homo sapiens) (UniProt P11086).
T1 sequence (whole entry): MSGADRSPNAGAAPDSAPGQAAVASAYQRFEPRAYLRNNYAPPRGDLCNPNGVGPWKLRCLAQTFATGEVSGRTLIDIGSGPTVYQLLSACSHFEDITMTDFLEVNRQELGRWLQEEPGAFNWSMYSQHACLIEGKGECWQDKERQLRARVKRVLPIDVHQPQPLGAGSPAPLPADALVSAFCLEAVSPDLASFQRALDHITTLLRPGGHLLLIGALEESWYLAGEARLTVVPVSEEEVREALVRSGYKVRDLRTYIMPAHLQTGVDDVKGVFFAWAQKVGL
Particulars: Oryctolagus cuniculus.
Description: Inhibition of phenylethanolamine N-methyltransferase(PNMT)activity
For the compound `NCc1ccccc1F`, the pI50 amounted to 3.87. The same measure, in the same setting: the value for `NCc1cc(Cl)ccc1Cl` was 4.82; that for `Cc1ccccc1CN` was 4.17; that for `NCc1cccc(F)c1` was 4. For the compound `NCc1ccc(Cl)cc1Cl`, the pI50 amounted to 4.68. For `Cc1ccc(CN)cc1`, the pI50 worked out at 3.16. On the same count and under the same terms, to `Cc1cccc(CN)c1` belongs 3.82; to `NCc1ccc(C(F)(F)F)cc1`, 5.2.

The compound `NCc1cccc(Cl)c1` gave a pI50 of 5.07. Still for that read-out and setting: to `Cc1cccc(CN)c1C` belongs 4.24. In the case of `NCc1cccc(C(F)(F)F)c1`, the pI50 turned out to be 5.64. Same read-out and setting: to `NCc1ccccc1C(F)(F)F` belongs 4.64.
